Legend:
GR = target: T1, GR (Homo sapiens, UniProt P04150); assay: In Vitro GR Luciferase Reporter Assay (antagonist mode, CHO-K1-GR-MMTV-Luc reporter cells); assay type: cell-based; details: antagonist mode, 10 nM Dexamethasone
T1 construct: expressed in transfected cells; host or cells: CHO-K1
T1 sequence (P04150 1-777): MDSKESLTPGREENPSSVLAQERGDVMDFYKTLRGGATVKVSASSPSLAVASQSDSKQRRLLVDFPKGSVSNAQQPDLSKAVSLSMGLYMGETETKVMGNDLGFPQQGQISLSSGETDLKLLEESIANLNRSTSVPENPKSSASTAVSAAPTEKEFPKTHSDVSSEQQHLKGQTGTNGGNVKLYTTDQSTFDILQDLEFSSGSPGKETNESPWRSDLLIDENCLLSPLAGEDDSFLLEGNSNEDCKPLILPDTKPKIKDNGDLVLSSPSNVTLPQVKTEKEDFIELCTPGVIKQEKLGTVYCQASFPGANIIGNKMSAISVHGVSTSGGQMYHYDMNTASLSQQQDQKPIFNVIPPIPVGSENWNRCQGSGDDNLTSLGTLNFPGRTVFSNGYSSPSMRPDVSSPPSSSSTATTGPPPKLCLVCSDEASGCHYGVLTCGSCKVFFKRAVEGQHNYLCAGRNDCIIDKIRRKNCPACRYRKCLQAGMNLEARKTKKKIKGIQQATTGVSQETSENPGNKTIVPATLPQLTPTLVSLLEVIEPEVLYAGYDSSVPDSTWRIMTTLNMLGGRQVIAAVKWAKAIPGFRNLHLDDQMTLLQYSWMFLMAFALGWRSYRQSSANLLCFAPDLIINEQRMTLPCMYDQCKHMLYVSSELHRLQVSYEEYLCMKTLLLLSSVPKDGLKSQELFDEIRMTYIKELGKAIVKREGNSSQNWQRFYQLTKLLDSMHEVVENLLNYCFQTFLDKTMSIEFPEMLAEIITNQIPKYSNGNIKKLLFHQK
Summary of the method: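 Antagonist mode: compounds (8 serial 1:5 dilutions) added to GR-MMTV-luciferase CHO-K1 reporter cells co-exposed to 10 nM dexamethasone final, in phenol red-free DMEM plus 10% CSS. After roughly 18-24 h at 37° C, OneGlo luminescence read and IC50 calculated.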

CYP2C8 = target: T2, CYP2C8 (Homo sapiens, UniProt P10632); assay: CYP Inhibition Assay (CYP2C8, human liver microsomes, paclitaxel substrate); assay type: in vitro ADME; details: pH 7.4; pooled human liver microsomes 0.1 mg/mL, probe substrate paclitaxel
T2 construct: Pooled human microsomes were obtained from Sekisui XenoTech, KS; tissue Sekisui XenoTech, KS; host or cells: pooled human liver microsomes
T2 sequence (P10632 1-490): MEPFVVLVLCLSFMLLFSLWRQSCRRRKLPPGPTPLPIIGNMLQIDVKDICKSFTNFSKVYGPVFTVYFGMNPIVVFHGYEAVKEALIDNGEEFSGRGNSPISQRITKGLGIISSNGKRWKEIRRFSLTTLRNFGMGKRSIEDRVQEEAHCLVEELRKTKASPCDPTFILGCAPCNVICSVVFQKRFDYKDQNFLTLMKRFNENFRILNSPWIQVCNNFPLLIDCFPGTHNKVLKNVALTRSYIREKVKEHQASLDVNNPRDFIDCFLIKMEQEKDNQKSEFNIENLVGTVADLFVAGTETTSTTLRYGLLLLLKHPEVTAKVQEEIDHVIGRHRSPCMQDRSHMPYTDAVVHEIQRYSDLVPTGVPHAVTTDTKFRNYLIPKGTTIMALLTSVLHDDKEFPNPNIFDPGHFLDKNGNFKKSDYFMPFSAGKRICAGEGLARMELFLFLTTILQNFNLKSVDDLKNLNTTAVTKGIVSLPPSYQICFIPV
Summary of the method: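 CYP2C8 activity read as 6α-hydroxypaclitaxel formation by LC-MS/MS, with % inhibition versus vehicle control. Reactions ran 5 min at 37° C, pH 7.4 phosphate buffer, 0.1 mg/mL pooled human liver microsomes, 1 mM NADPH, duplicate wells.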

| IC50 (GR) | inhibition at 5 min (CYP2C8) | SMILES |
| --- | --- | --- |
| ≤ 100 nM | 25 to 50% | Cn1cnc(S(=O)(=O)N(CC(F)(F)F)[C@H]2CCC3=Cc4c(cnn4-c4ccc(F)cc4)C[C@]3(C(=O)c3ncc(C(F)(F)F)s3)C2)n1 [Example 367, N-((4aS,6S)-1-(4-fluorophenyl)-4a-(5-(trifluoromethyl)thiazole-2-carbonyl)-4,4a,5,6,7,8-hexahydro-1H-benzo[f]indazol-6-yl)-1-methyl-N-(2,2,2-trifluoroethyl)-1H-1,2,4-triazole-3-sulfonamide] |
| ≤ 100 nM | 25 to 50% | Cn1ccc(S(=O)(=O)N([C@H]2CCC3=Cc4c(cnn4-c4ccc(F)cc4)C[C@]3(C(=O)c3ncc(C(F)(F)F)s3)C2)[C@H]2C[C@@](O)(C(F)(F)F)C2)n1 [Example 368, N-((4aS,6S)-1-(4-fluorophenyl)-4a-(5-(trifluoromethyl)thiazole-2-carbonyl)-4,4a,5,6,7,8-hexahydro-1H-benzo[f]indazol-6-yl)-N-((1r,3S)-3-hydroxy-3-(trifluoromethyl)cyclobutyl)-1-methyl-1H-pyrazole-3-sulfonamide] |
| ≤ 100 nM | 25 to 50% | CO[C@]1(C)C[C@H](N([C@H]2CCC3=Cc4c(cnn4-c4ccc(F)cc4)C[C@]3(C(=O)c3cc(F)ccn3)C2)S(=O)(=O)c2ccn(C)n2)C1 [Example 371, N-((4aS,6S)-1-(4-fluorophenyl)-4a-(4-fluoropicolinoyl)-4,4a,5,6,7,8-hexahydro-1H-benzo[f]indazol-6-yl)-N-((1s,3R)-3-methoxy-3-methylcyclobutyl)-1-methyl-1H-pyrazole-3-sulfonamide] |
| ≤ 100 nM | 50 to 75% | Cn1cc(S(=O)(=O)N(CC(F)F)[C@H]2CCC3=Cc4c(cnn4-c4ccc(F)cc4)C[C@]3(C(=O)c3cc(F)ccn3)C2)nn1 [Example 373, N-(2,2-difluoroethyl)-N-((4aS,6S)-1-(4-fluorophenyl)-4a-(4-fluoropicolinoyl)-4,4a,5,6,7,8-hexahydro-1H-benzo[f]indazol-6-yl)-1-methyl-1H-1,2,3-triazole-4-sulfonamide] |
| ≤ 100 nM | ≤ 25% | Cn1cnc(S(=O)(=O)[C@H]2CCC3=Cc4c(cnn4-c4ccc(F)cc4)C[C@]3(C(=O)c3ccc(C(F)(F)F)cn3)C2)n1 [Example 374, ((4aS,6S)-1-(4-fluorophenyl)-6-((1-methyl-1H-1,2,4-triazol-3-yl)sulfonyl)-1,4,5,6,7,8-hexahydro-4aH-benzo[f]indazol-4a-yl)(5-(trifluoromethyl)pyridin-2-yl)methanone] |
| ≤ 100 nM | 25 to 50% | Cn1cnc(S(=O)(=O)CC2CCC3=Cc4c(cnn4-c4ccc(F)cc4)C[C@]3(C(=O)c3cc(C(F)(F)F)ccn3)C2)n1 (stereo partly drawn) [Example 377, ((4aR)-1-(4-fluorophenyl)-6-(((1-methyl-1H-1,2,4-triazol-3-yl)sulfonyl)methyl)-1,4,5,6,7,8-hexahydro-4aH-benzo[f]indazol-4a-yl)(4-(trifluoromethyl)pyridin-2-yl)methanone] |

Continued, compound first:

| SMILES | IC50 (GR) | inhibition at 5 min (CYP2C8) |
| --- | --- | --- |
| Cn1cc(S(=O)(=O)N(CC(F)F)[C@H]2CCC3=Cc4c(cnn4-c4ccc(F)cc4)C[C@]3(C(=O)c3ncc(C(F)(F)F)s3)C2)nn1 [Example 350, N-(2,2-difluoroethyl)-N-((4aS,6S)-1-(4-fluorophenyl)-4a-(5-(trifluoromethyl)thiazole-2-carbonyl)-4,4a,5,6,7,8-hexahydro-1H-benzo[f]indazol-6-yl)-1-methyl-1H-1,2,3-triazole-4-sulfonamide] | ≤ 100 nM | 25 to 50% |
| Cn1cnc(S(=O)(=O)N(C2CC(F)(F)C2)[C@H]2CCC3=Cc4c(cnn4-c4ccc(F)cc4)C[C@]3(C(=O)c3cc(F)ccn3)C2)n1 [Example 354, N-(3,3-difluorocyclobutyl)-N-((4aS,6S)-1-(4-fluorophenyl)-4a-(4-fluoropicolinoyl)-4,4a,5,6,7,8-hexahydro-1H-benzo[f]indazol-6-yl)-1-methyl-1H-1,2,4-triazole-3-sulfonamide] | ≤ 100 nM | 25 to 50% |
| Cn1cnc(S(=O)(=O)N(C2CC(F)(F)C2)[C@H]2CCC3=Cc4c(cnn4-c4ccc(F)cc4)C[C@]3(C(=O)c3cc(Cl)ccn3)C2)n1 [Example 355, N-((4aS,6S)-4a-(4-chloropicolinoyl)-1-(4-fluorophenyl)-4,4a,5,6,7,8-hexahydro-1H-benzo[f]indazol-6-yl)-N-(3,3-difluorocyclobutyl)-1-methyl-1H-1,2,4-triazole-3-sulfonamide] | ≤ 100 nM | ≤ 25% |
| CCN([C@H]1CCC2=Cc3c(cnn3-c3ccc(F)cc3)C[C@]2(C(=O)c2ncc(C(F)(F)F)s2)C1)S(=O)(=O)c1ncn(C)n1 [Example 356, N-ethyl-N-((4aS,6S)-1-(4-fluorophenyl)-4a-(5-(trifluoromethyl)thiazole-2-carbonyl)-4,4a,5,6,7,8-hexahydro-1H-benzo[f]indazol-6-yl)-1-methyl-1H-1,2,4-triazole-3-sulfonamide] | ≤ 100 nM | 25 to 50% |
| CCN([C@H]1CCC2=Cc3c(cnn3-c3ccc(F)cc3)C[C@]2(C(=O)c2cc(C(F)(F)F)ccn2)C1)S(=O)(=O)c1ncn(C)n1 [Example 357, N-ethyl-N-((4aS,6S)-1-(4-fluorophenyl)-4a-(4-(trifluoromethyl)picolinoyl)-4,4a,5,6,7,8-hexahydro-1H-benzo[f]indazol-6-yl)-1-methyl-1H-1,2,4-triazole-3-sulfonamide] | ≤ 100 nM | ≤ 25% |
| CCN([C@H]1CCC2=Cc3c(cnn3-c3ccc(F)cc3)C[C@]2(C(=O)c2cc(F)ccn2)C1)S(=O)(=O)c1ncn(C)n1 [Example 358, N-ethyl-N-((4aS,6S)-1-(4-fluorophenyl)-4a-(4-fluoropicolinoyl)-4,4a,5,6,7,8-hexahydro-1H-benzo[f]indazol-6-yl)-1-methyl-1H-1,2,4-triazole-3-sulfonamide] | ≤ 100 nM | 25 to 50% |
| CCN([C@H]1CCC2=Cc3c(cnn3-c3ccc(F)cc3)C[C@]2(C(=O)c2cc(Cl)ccn2)C1)S(=O)(=O)c1ncn(C)n1 [Example 359, N-((4aS,6S)-4a-(4-chloropicolinoyl)-1-(4-fluorophenyl)-4,4a,5,6,7,8-hexahydro-1H-benzo[f]indazol-6-yl)-N-ethyl-1-methyl-1H-1,2,4-triazole-3-sulfonamide] | ≤ 100 nM | 25 to 50% |
| Cn1cnc(S(=O)(=O)N(C2CC2)[C@H]2CCC3=Cc4c(cnn4-c4ccc(F)cc4)C[C@]3(C(=O)c3cc(Cl)ccn3)C2)c1 [Example 363, N-((4aS,6S)-4a-(4-chloropicolinoyl)-1-(4-fluorophenyl)-4,4a,5,6,7,8-hexahydro-1H-benzo[f]indazol-6-yl)-N-cyclopropyl-1-methyl-1H-imidazole-4-sulfonamide] | ≤ 100 nM | 25 to 50% |
| Cn1ccc(S(=O)(=O)N([C@H]2CCC3=Cc4c(cnn4-c4ccc(F)cc4)C[C@]3(C(=O)c3ncc(C(F)(F)F)s3)C2)[C@H]2C[C@](O)(C(F)(F)F)C2)n1 [Example 366, N-((4aS,6S)-1-(4-fluorophenyl)-4a-(5-(trifluoromethyl)thiazole-2-carbonyl)-4,4a,5,6,7,8-hexahydro-1H-benzo[f]indazol-6-yl)-N-((1s,3R)-3-hydroxy-3-(trifluoromethyl)cyclobutyl)-1-methyl-1H-pyrazole-3-sulfonamide] | ≤ 100 nM | ≤ 25% |

Source: patent publication US20210122730A1, “GLUCOCORTICOID RECEPTOR MODULATORS” (ORIC Pharmaceuticals, Inc., priority 2017, published 2021)
